Data set [1] can be described thus: Solubility assessment in solubility buffer system A. It is filed as physicochemical. Conditions: acetate buffer pH 4.5 with m-cresol; acetate buffer pH 4.5, 2.7 mg/ml m-cresol, target 10 mg/ml. As to the method: Prior to the solubility measurement of a peptide batch, its purity was determined through UPLC/MS.
Therefore solutions from solid samples were prepared in a buffer system with a concentration of 10 mg/mL compound based on the previously determined % purity:
Solubility buffer system A) Acetate Buffer pH 4.5, 100 mM sodium acetate trihydrate, 2.7 mg/ml m-Cresol
UPLC-UV was performed after 1 hour of gentle agitation from the supernatant, which was obtained after 15 min of centrifugation at 2500 RCF (relative centrifugal acceleration).
The solubility was determined by the comparison of the UV peak area of 2 μL-injection of a buffered sample diluted 1:10 with a standard curve of a reference peptide with known concentration. The different UV extinction coefficients of sample and reference peptide were calculated based on the different amino acid sequences and considered in the concentration calculation.
Peptide samples were prepared in solubility buffer system A and solubility was assessed as described in Methods.

The target in data set [2] is T1, human glucagon receptor (Homo sapiens, UniProt P47871).
T1 construct: expressed in transfected cells; host or cells: HEK-293
As to the kind of experiment: cAMP response (HTRF) of HEK-293 cells stably expressing human glucagon receptor. It is filed as cell-based. To be noted: Table 8; read-out: EC50 hGlucagon R. Here is the method: cAMP content of cells was determined using a kit from Cisbio Corp. (cat. no. 62AM4PEJ) based on HTRF (Homogenous Time Resolved Fluorescence). For preparation, cells were split into T175 culture flasks and grown overnight to near confluency in medium (DMEM/10% FBS). Medium was then removed and cells washed with PBS lacking calcium and magnesium, followed by proteinase treatment with accutase (Sigma-Aldrich cat. no. A6964). Detached cells were washed and resuspended in assay buffer (1×HBSS; 20 mM HEPES, 0.1% BSA, 2 mM IBMX) and cellular density determined. They were then diluted to 400000 cells/ml and 25 μl-aliquots dispensed into the wells of 96-well plates. For measurement, 25 μl of test compound in assay buffer was added to the wells, followed by incubation for 30 minutes at room temperature.
Potencies of peptidic compounds at the GLP-1, glucagon and GIP receptors were determined by exposing cells expressing human glucagon receptor (hGlucagon R), human GIP receptor (hGIP-R) or human GLP-1 receptor (hGLP-1 R) to the listed compounds at increasing concentrations and measuring the formed cAMP as described in Methods.
For orientation: Time-resolved FRET reads energy transfer from a long-lived donor to a nearby acceptor.

For data set [3], the target named is T2, human GIP receptor (Homo sapiens, UniProt P48546).
T2 construct: expressed in transfected cells; host or cells: HEK-293
T2 sequence (P48546 22-466): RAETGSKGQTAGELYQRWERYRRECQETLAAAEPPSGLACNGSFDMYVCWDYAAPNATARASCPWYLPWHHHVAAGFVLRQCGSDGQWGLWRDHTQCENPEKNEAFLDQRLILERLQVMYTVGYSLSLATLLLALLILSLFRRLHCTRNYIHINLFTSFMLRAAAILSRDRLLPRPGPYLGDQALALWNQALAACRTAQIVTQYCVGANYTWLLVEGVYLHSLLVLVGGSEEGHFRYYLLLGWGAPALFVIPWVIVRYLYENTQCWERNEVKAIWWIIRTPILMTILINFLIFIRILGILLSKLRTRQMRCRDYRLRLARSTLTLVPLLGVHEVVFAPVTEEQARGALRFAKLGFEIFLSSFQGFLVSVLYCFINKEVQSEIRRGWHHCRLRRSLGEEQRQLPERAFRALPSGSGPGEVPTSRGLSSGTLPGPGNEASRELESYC
The data set can be described thus: cAMP response (HTRF) of HEK-293 cells stably expressing human GIP receptor. It is filed as cell-based. Conditions: Table 8; read-out: EC50 hGIP R. In a few lines:
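HEK-293 cells stably expressing human GIP receptor were incubated with compound for 30 min at room temperature in HBSS/20 mM HEPES/0.1% BSA with 2 mM IBMX. cAMP was measured by HTRF (665/616 nm ratio) after 1 h with detection reagents in lysis buffer; EC50 is the concentration giving 50% of maximal response.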

Each structure is given as a SMILES string. ≈ marks a conversion by molar mass, not a printed value. Numbered stars: 1 amine (or outer) side, 2 acyl side, 3 side chain; on linkers, the order of the positions; unused ones are H or OH. Square brackets hold non-standard residues; d marks the D form. Side chains are listed from the residue outwards. Peptide text beside a SMILES is read from it. * marks the point of attachment. γGlu = O=C(O)[C@H](CCC(=O)[*:2])N[*:1]; Palmitoyl = CCCCCCCCCCCCCCCC(=O)*; Aib = CC(C)(N)C(=O)O

T1 sequence (P47871 26-477): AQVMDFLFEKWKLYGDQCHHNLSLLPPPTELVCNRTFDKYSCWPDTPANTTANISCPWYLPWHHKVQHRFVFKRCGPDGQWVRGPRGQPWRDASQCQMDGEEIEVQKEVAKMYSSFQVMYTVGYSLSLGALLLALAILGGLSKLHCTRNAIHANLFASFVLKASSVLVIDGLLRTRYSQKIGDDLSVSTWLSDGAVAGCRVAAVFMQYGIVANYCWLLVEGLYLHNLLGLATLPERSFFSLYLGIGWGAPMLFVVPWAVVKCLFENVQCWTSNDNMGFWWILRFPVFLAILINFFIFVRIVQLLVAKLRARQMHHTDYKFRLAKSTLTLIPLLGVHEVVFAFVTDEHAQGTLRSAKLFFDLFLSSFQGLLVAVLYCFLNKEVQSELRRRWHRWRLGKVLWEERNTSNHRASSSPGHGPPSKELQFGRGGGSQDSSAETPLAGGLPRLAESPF

A word on the solubility: it is how much of the substance goes into solution per volume. Higher therefore signals much dissolved substance. As a reminder, the EC50 is the midpoint of the concentration-response curve. Compound `CCCCCCCCCCCCCCCC(=O)N[C@@H](CCC(=O)N[C@@H](CCC(=O)NCCCC[C@H](NC(=O)[C@H](CC(C)C)NC(=O)[C@H](CCCCN)NC(=O)[C@H](CO)NC(=O)[C@H](CC(C)C)NC(=O)[C@H](CC(=O)O)NC(=O)[C@H](CO)NC(=O)[C@@H](NC(=O)[C@H](Cc1ccccc1)NC(=O)[C@@H](NC(=O)CNC(=O)[C@H](Cc1c[nH]cn1)NC(=O)C(C)(C)NC(=O)[C@@H](N)Cc1c[nH]cn1)[C@@H](C)O)[C@@H](C)O)C(=O)N[C@@H](CCC(=O)O)C(=O)N[C@@H](CCC(=O)O)C(=O)N[C@@H](CCC(N)=O)C(=O)N[C@@H](CCCNC(=N)N)C(=O)N[C@@H](CCC(N)=O)C(=O)N[C@@H](CCCCN)C(=O)N[C@@H](CCC(=O)O)C(=O)N[C@@H](Cc1ccccc1)C(=O)N[C@H](C(=O)N[C@@H](CCC(=O)O)C(=O)N[C@@H](Cc1c[nH]c2ccccc12)C(=O)N[C@@H](CC(C)C)C(=O)N[C@@H](CCCCN)C(=O)N[C@@H](C)C(=O)NCC(=O)NCC(=O)N1CCC[C@H]1C(=O)N1CCC[C@H]1C(=O)N[C@@H](CO)C(=O)NC(C)(C)C(=O)N[C@@H](CCCCN)C(=O)N1CCC[C@H]1C(=O)N1CCC[C@H]1C(=O)N1CCC[C@H]1C(=O)N[C@@H](CCCCN)C(N)=O)[C@@H](C)CC)C(=O)O)C(=O)O` [SEQ ID NO: 8, H-Aib-H-G-T-F-T-S-D-L-S-K-L-K[gGlu-gGlu-Palm]-E-E-Q-R-Q-K-E-F-I-E-W-L-K-A-G-G-P-P-S-Aib-K-P-P-P-K-NH2] showed a solubility at 1 h in data set [1] of 9500 µg/mL (≈ 1940 µM). The EC50 in data set [2] worked out at 2 pM.
In the case of `CCCCCCCCCCCCCCCC(=O)N[C@@H](CCC(=O)N[C@@H](CCC(=O)NCCCC[C@H](NC(=O)[C@H](CC(C)C)NC(=O)[C@H](CCCCN)NC(=O)[C@H](CO)NC(=O)[C@H](CC(C)C)NC(=O)[C@H](CC(=O)O)NC(=O)[C@H](CO)NC(=O)[C@@H](NC(=O)[C@H](Cc1ccccc1)NC(=O)[C@@H](NC(=O)CNC(=O)[C@H](Cc1c[nH]cn1)NC(=O)C(C)(C)NC(=O)[C@@H](N)Cc1c[nH]cn1)[C@@H](C)O)[C@@H](C)O)C(=O)N[C@@H](CCC(=O)O)C(=O)N[C@@H](CCC(=O)O)C(=O)N[C@@H](CCC(N)=O)C(=O)N[C@@H](CCCNC(=N)N)C(=O)N[C@@H](CCC(N)=O)C(=O)NC(C)(C)C(=O)N[C@@H](CCC(=O)O)C(=O)N[C@@H](Cc1ccccc1)C(=O)N[C@H](C(=O)N[C@@H](CCC(=O)O)C(=O)N[C@@H](Cc1c[nH]c2ccccc12)C(=O)N[C@@H](CC(C)C)C(=O)N[C@@H](CCCCN)C(=O)N[C@@H](C)C(=O)NCC(=O)NCC(=O)N[C@@H](Cc1c[nH]cn1)C(=O)N1CCC[C@H]1C(=O)N[C@@H](CO)C(=O)NC(C)(C)C(=O)N[C@@H](CCCCN)C(=O)N1CCC[C@H]1C(=O)N1CCC[C@H]1C(=O)N1CCC[C@H]1C(=O)N[C@@H](CCCCN)C(N)=O)[C@@H](C)CC)C(=O)O)C(=O)O` [SEQ ID NO: 12, H-Aib-H-G-T-F-T-S-D-L-S-K-L-K[gGlu-gGlu-Palm]-E-E-Q-R-Q-Aib-E-F-I-E-W-L-K-A-G-G-H-P-S-Aib-K-P-P-P-K-NH2], the values for the EC50 in data set [2] and in data set [3] were 2 pM and 1.9 pM, respectively.
Take `CCCCCCCCCCCCCCCC(=O)N[C@@H](CCC(=O)N[C@@H](CCC(=O)NCCCC[C@H](NC(=O)[C@H](CC(C)C)NC(=O)[C@H](CCCCN)NC(=O)[C@H](CO)NC(=O)[C@H](CC(C)C)NC(=O)[C@H](CC(=O)O)NC(=O)[C@H](CO)NC(=O)[C@@H](NC(=O)[C@H](Cc1ccccc1)NC(=O)[C@@H](NC(=O)CNC(=O)[C@H](Cc1c[nH]cn1)NC(=O)C(C)(C)NC(=O)[C@@H](N)Cc1c[nH]cn1)[C@@H](C)O)[C@@H](C)O)C(=O)N[C@@H](CCC(=O)O)C(=O)N[C@@H](CCC(=O)O)C(=O)N[C@@H](CCC(N)=O)C(=O)N[C@@H](CCCNC(=N)N)C(=O)N[C@@H](CCC(N)=O)C(=O)NC(C)(C)C(=O)N[C@@H](CCC(=O)O)C(=O)N[C@@H](Cc1ccccc1)C(=O)N[C@H](C(=O)N[C@@H](CCC(=O)O)C(=O)N[C@@H](Cc1c[nH]c2ccccc12)C(=O)N[C@@H](CC(C)C)C(=O)N[C@@H](CCCCN)C(=O)N[C@@H](C)C(=O)N[C@H](C)C(=O)NCC(=O)N1CCC[C@H]1C(=O)N1CCC[C@H]1C(=O)N[C@@H](CO)C(=O)NC(C)(C)C(=O)N[C@@H](CCCCN)C(=O)N1CCC[C@H]1C(=O)N1CCC[C@H]1C(=O)N1CCC[C@H]1C(=O)N[C@@H](CCCCN)C(N)=O)[C@@H](C)CC)C(=O)O)C(=O)O` [SEQ ID NO: 11, H-Aib-H-G-T-F-T-S-D-L-S-K-L-K[gGlu-gGlu-Palm]-E-E-Q-R-Q-Aib-E-F-I-E-W-L-K-A-dAla-G-P-P-S-Aib-K-P-P-P-K-NH2] (H-H[Aib]HGTFTSDLSKLK([γGlu-γGlu-Palmitoyl])EEQRQ[Aib]EFIEWLKA[dA]GPPS[Aib]KPPPK-NH2): the solubility at 1 h in data set [1] is greater than 9800 µg/mL. The EC50 in data set [2] amounted to 2.1 pM; in data set [3] it was 1.5 pM.
Consider `CCCCCCCCCCCCCCCC(=O)N[C@@H](CCC(=O)N[C@@H](CCC(=O)NCCCC[C@H](NC(=O)[C@H](CC(C)C)NC(=O)[C@H](CCCCN)NC(=O)[C@H](CO)NC(=O)[C@H](CC(C)C)NC(=O)[C@H](CC(=O)O)NC(=O)[C@H](CO)NC(=O)[C@@H](NC(=O)[C@H](Cc1ccccc1)NC(=O)[C@@H](NC(=O)CNC(=O)[C@H](Cc1c[nH]cn1)NC(=O)C(C)(C)NC(=O)[C@@H](N)Cc1c[nH]cn1)[C@@H](C)O)[C@@H](C)O)C(=O)N[C@@H](CCC(=O)O)C(=O)N[C@@H](CCC(=O)O)C(=O)N[C@@H](CCC(N)=O)C(=O)N[C@@H](CCCNC(=N)N)C(=O)N[C@@H](CCC(N)=O)C(=O)NC(C)(C)C(=O)N[C@@H](CCC(=O)O)C(=O)N[C@@H](Cc1ccccc1)C(=O)N[C@H](C(=O)N[C@@H](CCC(=O)O)C(=O)N[C@@H](Cc1c[nH]c2ccccc12)C(=O)N[C@@H](CC(C)C)C(=O)N[C@@H](CCCCN)C(=O)N[C@@H](C)C(=O)N[C@H](C)C(=O)NCC(=O)N[C@@H](Cc1c[nH]cn1)C(=O)N1CCC[C@H]1C(=O)N[C@@H](CO)C(=O)NC(C)(C)C(=O)N[C@@H](CCCCN)C(=O)N1CCC[C@H]1C(=O)N1CCC[C@H]1C(=O)N1CCC[C@H]1C(=O)N[C@@H](CCCCN)C(N)=O)[C@@H](C)CC)C(=O)O)C(=O)O` [SEQ ID NO: 13, H-Aib-H-G-T-F-T-S-D-L-S-K-L-K[gGlu-gGlu-Palm]-E-E-Q-R-Q-Aib-E-F-I-E-W-L-K-A-dAla-G-H-P-S-Aib-K-P-P-P-K-NH2] (H-H[Aib]HGTFTSDLSKLK([γGlu-γGlu-Palmitoyl])EEQRQ[Aib]EFIEWLKA[dA]GHPS[Aib]KPPPK-NH2), for which the EC50 in data set [2] was determined as 2.1 pM.

The values are drawn from US10538567B2, “Compounds as peptidic trigonal GLP1/glucagon/GIP receptor agonists” (priority 2016, dated 2020).
